Source: patent US10087156B2, “Methods and compositions related to retinoid receptor-selective pathway” (Sanford Burnham Prebys Medical Discovery Institute, priority 2010, dated 2018)
“Also recorded” adds a separate entry of the source.

Assays:
[1] = target: T1, RXRα ligand-binding domain (LBD) (Homo sapiens, UniProt P19793); assay: Competitive ligand-binding assay with [3H]9-cis-RA
T1 construct: made in house
Method: Competitive ligand-binding assays (FIG. 1A) and HPLC analysis of Sulindac binding to RXRα, Nur77, or RARβ in HEK293T cells (FIG. 1B) were performed. RXRα LBD protein was incubated with [^3H]9-cis-RA in the presence or absence of Sulindac or unlabeled 9-cis-RA. Bound [^3H]9-cis-RA was quantitated by liquid scintillation counting (FIG. 1A). HEK293T cells stably expressing RXRαfused to a C-terminal TAP tag (Stratagene, La Jolla, Calif.) were treated with or without 100 μM sulindac sulfide for 3 hr. After treatment, cells were purified and analyzed by HPLC for the presence of sulindac sulfide. A standard solution of sulindac sulfide was used to obtain the calibration curve. Characteristic peak spectrum and retention time was used for identification, and peak areas at max used for quantification were calculated (FIGS. 1B and 10). Sulindac sulfide bound to RXRα with an IC50 of 80 μM (FIG. 1A), which is in the concentration range that induces apoptosis.
Bacterially expressed His-tagged RXRα ligand-binding domain (LBD) (aa 223-462) was incubated with [^3H]-9-cis-RA (Amersham Biosciences, Amersham, UK) in ligand binding assay buffer in the presence or absence of various concentrations of unlabeled 9-cis-RA or sulindac sulfide. […] Bound radiolabeled 9-cis-RA was determined in a scintillation counter as described (Kolluri, S. K. et al., Proc Natl Acad Sci USA 102 (7), 2525-2530 (2005)).

[2] = system: AKT; assay: Retinoic acid-induced AKT activation by immunoblotting; type: cell-based; conditions: 50 μM each, Caco-2 and MEF cells
Method: Caco-2 and MEF cells were treated with the indicated concentration of Sulindac or K-80003 for 30 min, then stimulated with all-trans-RA (10^−7 M) for 15 min. AKT activation was analyzed by immunoblotting.

[3] = system: AKT; assay: TNFα-induced AKT activation by immunoblotting; type: cell-based
Method: MEF and MCF-7 cells were starved overnight, pretreated with Sulindac for 1 hr, and stimulated with EGF (100 ng/ml) for 15 min. AKT activation was analyzed by immunoblotting (FIG. 12A). MEF and Caco-2 cells were starved overnight and pretreated with Sulindac for 30 min before exposure to all-trans-retinoic acid (ATRA) (10^−7 M) for 30 min and analyzed for AKT activation (FIG. 12B). AKT activation in ZR-75-1 breast cancer cells transfected with RXRα siRNA for 48 hr before exposure to 9-cis-RA (10^−7 M) for 30 min was also analyzed by immunoblotting (FIG. 12C). A549 lung cancer cells transfected with RXRα or control siRNA (FIG. 3C) and ZR-75-1 and PC3 cells (FIG. 3D) were pretreated with Sulindac (100 μM) for 1 hr before exposure to TNFα (10 ng/ml) for 30 min and analyzed for AKT activation and RXRα expression by immunoblotting.
For immunoblotting, cell lysates were boiled in SDS sample buffer, resolved by SDS-polyacrylamide gel electrophoresis, and transferred to nitrocellulose. After transfer, the membranes were blocked in 5% milk in TBST (10 mM Tris-HCl, pH. 8.0, 150 mM NaCl, 0.05% Tween 20) containing antibody. The membranes were then washed three times with TBST, then incubated for 1 hr at room temperature in 5% milk in TBST containing horseradish peroxide-linked anti-immunoglobulin.

[4] = system: HepG2 liver cancer cells; assay: PARP cleavage and caspase-8 activation with TNFα by immunoblotting; type: cell-based; conditions: HepG2 (K-80003: HepG2 and PC3) cells, TNFα 10 ng/ml
Method: ZR-75-1 cells were treated with TNFα and/or Sulindac (75 μM) or K-80003 (50 μM) for 6 hr and analyzed by immunoblotting.
HepG2 cells cultured in medium with 1% FBS were treated with SR11237 (1 μM) for 1 hr, then TNFα (10 ng/ml) and/or Sulindac (75 μM) for 4 hr, and analyzed by immunoblotting. HepG2 cells transfected with control or RXRα siRNA were treated with TNFα and/or Sulindac and analyzed by immunoblotting.

[5] = system: HeLa/RXRα/1-134 stable clone; assay: Colony formation (clonogenic survival) assay; type: cell-based; conditions: HeLa/RXRα/1-134 stable clone (also RXRα/Δ80 stable clones)
Method: HeLa RXR/α1-134 stable clone and control HeLa cells were seeded in 6-well plate, 350 cells/well. Five days later, cells were treated with Sulindac (50 μM) and K-80003 (25 μM) in 0.5% serum medium for 3 days. After washed with PBS, cells were fixed with 4% paraformaldehyde in PBS for 20 min. Colonies were stained with 0.1% crystal violet for 30 min, and pictures were taken and colonies were counted.

[6] = target: T2, RXRα homodimer and heterodimer (Homo sapiens, UniProt P19793); assay: (TREpal)2-tk-CAT and βRARE-tk-CAT reporter assays in CV-1 cells; type: cell-based; conditions: SR11237 10^−6 M
T2 construct: expressed in transfected cells; host or cells: CV-1 green monkey kidney cells
Method: Nur77 and/or RXRα were transiently transfected into CV-1 cells. Cells were treated with or without SR11237 (10^−6 M), a RXR-selective agonist, in the presence or absence of Sulindac. (TREpal)2-tk-CAT (Zhang et al., Nature 358, 587-591 (1992a)) (FIG. 1E) and βRARE-tk-CAT (Zhang et al., Nature 355, 441-446 (1992b)) (FIG. 1F) CAT activity were determined.
Cells (1×10^5 cells/well) seeded in 24-well plates were transiently transfected using a modified calcium phosphate precipitation procedure as described (Kolluri, S. K. et al., Proc Natl Acad Sci USA 102 (7), 2525-2530 (2005); Cao, X., et al., Mol Cell Biol 24(22), 9705-9725 (2004)).

T1 sequence (P19793 223-462): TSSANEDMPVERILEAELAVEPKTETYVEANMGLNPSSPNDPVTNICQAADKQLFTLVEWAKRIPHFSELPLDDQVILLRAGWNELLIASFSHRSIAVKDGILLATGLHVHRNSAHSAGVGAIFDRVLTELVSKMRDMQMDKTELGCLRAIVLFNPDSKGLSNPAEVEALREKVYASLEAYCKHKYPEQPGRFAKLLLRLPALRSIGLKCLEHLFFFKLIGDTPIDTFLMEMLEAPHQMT
T2 sequence (P19793 whole entry, one chain of several): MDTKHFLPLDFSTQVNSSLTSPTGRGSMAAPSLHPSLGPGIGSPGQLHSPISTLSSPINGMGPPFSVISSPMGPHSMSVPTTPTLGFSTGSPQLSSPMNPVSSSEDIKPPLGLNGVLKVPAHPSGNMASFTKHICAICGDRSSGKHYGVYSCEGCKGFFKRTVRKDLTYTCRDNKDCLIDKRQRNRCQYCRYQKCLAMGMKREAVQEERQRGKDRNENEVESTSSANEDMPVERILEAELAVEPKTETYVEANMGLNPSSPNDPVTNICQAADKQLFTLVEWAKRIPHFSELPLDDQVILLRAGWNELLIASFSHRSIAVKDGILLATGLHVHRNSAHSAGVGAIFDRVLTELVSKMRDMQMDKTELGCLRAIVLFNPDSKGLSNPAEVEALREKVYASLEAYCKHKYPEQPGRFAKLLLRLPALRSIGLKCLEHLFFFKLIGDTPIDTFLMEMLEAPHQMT

Row | RXRα-binding activity, fold higher than Sulindac ([1]; competition ligand-binding assay) | Structure (SMILES) | inhibition of ATRA-induced AKT activation, compared with Sulindac [2] | inhibition of TNFα-induced AKT activation, compared with Sulindac ([3]; 50 μM each) | PARP cleavage and caspase-8 activation, combination with TNFα [4] | inhibition of colony formation [5] | IC50 ([1]; competition with [3H]9-cis-RA on RXRα LBD protein) [µM] | inhibition of TNFα-induced AKT activation ([3]; A549 lung cancer cells, 100 μM, TNFα 10 ng/ml) | inhibition of AKT activation, Sulindac alone ([3]; ZR-75-1 and PC3 cells (high basal AKT activation)) | inhibition of AKT activation, combination with TNFα ([3]; ZR-75-1 and PC3 cells, 100 μM, TNFα 10 ng/ml) | RXRα homodimer and heterodimer transactivation (CAT activity) [6]
1 | about 34 fold | CC1=C(CC(=O)O)c2cc(F)ccc2/C1=C\c1ccc(C(C)C)cc1 [K-80003, (Z)-2-(3-(4-Iso-propylbenzylidene)-6-fluoro-2-methyl-3H-inden-1-yl)acetic acid] | much more effective than Sulindac | much more effective than Sulindac | synergistically induced PARP cleavage and caspase-8 activation | much more effective than Sulindac; also recorded: almost completely suppressed | – | – | – | – | –
2 | – | CSc1ccc(/C=C2/C(C)=C(CC(=O)O)c3cc(F)ccc32)cc1 [Sulindac, (Z)-2-(3-(4-(Methylthio)benzylidene)-6-fluoro-2-methyl-3H-inden-1-yl)acetic acid] | – | – | effectively induced PARP cleavage and caspase-8 activation | strongly inhibited | 80 | potently inhibited | little inhibitory effect | almost completely | inhibited RXRα homodimer and heterodimer transactivation
